# Data: patent publication US8586551B2, “18-membered macrocycles and analogs thereof” (Optimer Pharmaceuticals, Inc., priority 2005, dated 2013)
# Legend:
# Format in all cases: cell-based
# [1] = test system: Non-fragilis B. fragilis group species; test: MIC against anaerobes: non-fragilis B. fragilis group; conditions: Bacteroides fragilis; Non-fragilis B. fragilis group species (38)
# Procedure: (§1) The in vitro activity of OPT-80 was determined against 350 anaerobes. The experimental procedure for which is outlined in Antimicrobial Agents and Chemotherapy, 2004, 48: 4430-4434, which is hereby incorporated by reference in its entirety.
# (§2) All organisms, including the 21 C. difficile strains, were separate isolates and not clonally related. All quality-control gram-negative and -positive strains recommended by NCCLS were included with each run: in every case, results (where available) were in range.
# Micromonas micros = test: MIC against anaerobes: Micromonas micros; conditions: Micromonas micros (14)
# Clostridium spp. (all) = test: MIC against anaerobes: Clostridium spp. (all)
# Procedure: as §1, §2
# [2] = test system: Other anaerobic gram-negative rods; test: MIC against intestinal bacteria: other anaerobic gram-negative rods
# Clostridium bifermentans = test: MIC against intestinal bacteria: Clostridium bifermentans; conditions: Clostridium bifermentans (9)
# Clostridium difficile = test: MIC against intestinal bacteria: Clostridium difficile; conditions: Clostridium difficile (23)
# Procedure: (§3) The in vitro activity of OPT-80 against intestinal bacteria was evaluated. The experimental procedure for which is outlined in Antimicrobial Agents and Chemotherapy, 2004, 48: 4898-4902, which is hereby incorporated by reference in its entirety.
# (§4) Antimicrobial concentration ranges were selected to encompass or surpass the levels that would be achieved in the gut (to the extent that this information is available), subject to the limitations of solubility of the drugs in the testing medium. The range of concentration of OPT-80 used during testing was 0.03 μg/ml to 1024 μg/ml.
# (§5) For analysis, the bacteria tested were generally placed into genus, species, or other groups with at least 10 isolates. The ranges and the MICs at which 50 and 90% of isolates were inhibited were determined except for organisms with fewer than 10 strains tested, for which only the ranges are reported (Table 8).
# [3] = test system: Clostridium paraputrificum; test: MIC against intestinal bacteria: Clostridium paraputrificum; conditions: Clostridium paraputrificum (8)
# Clostridium perfringens = Clostridium perfringens (14)
# [4] = test system: Anaerobic non-spore-forming gram-positive rods; test: MIC against intestinal bacteria: anaerobic non-spore-forming gram-positive rods
# [5] = test system: All anaerobic gram-positive species; test: MIC against intestinal bacteria: all anaerobic gram-positive species
# [6] = test system: Other Streptococcus species; test: MIC against intestinal bacteria: other Streptococcus species; conditions: Other Streptococcus species (9)
# Procedure: as §3, §4, §5
smiles,measurement,setting,value
"CCc1c(Cl)c(O)c(Cl)c(O)c1C(=O)O[C@H]1[C@H](O)[C@H](OC)[C@H](OCC2=CC=CC[C@H](O)C(C)=C[C@H](CC)[C@@H](O[C@@H]3OC(C)(C)[C@@H](OC(=O)C(C)C)[C@H](O)[C@@H]3O)C(C)=CC(C)=CC[C@@H]([C@@H](C)O)OC2=O)O[C@@H]1C [R-Tiacumicin B, 3-[[[6-Deoxy-4-O-(3,5-dichloro-2-ethyl-4,6-dihydroxybenzoyl)-2-O-methyl-β-D-mannopyranosyl]oxy]-methyl]-12(R)-[[6-deoxy-5-C-methyl-4-O-(2-methyl-1-oxopropyl)-β-D-lyxo-hexopyranosyl]oxy]-11(S)-ethyl-8(S)-hydroxy-18(S)-(1(R)-hydroxyethyl)-9,13,15-trimethyloxacyclooctadeca-3,5,9,13,15-pentaene-2-one]",MIC50,[1],> 128 µg/mL
same,MIC90,[1],> 128 µg/mL
same,MIC range,Micromonas micros,<0.016 to 0.06 µg/mL
same,MIC50,Micromonas micros; Parvimonas micra,0.03 µg/mL
same,MIC90,Micromonas micros; Parvimonas micra,0.06 µg/mL
same,MIC50,Clostridium spp. (all),< 0.016 µg/mL
same,MIC90,Clostridium spp. (all),0.06 µg/mL
same,MIC50,[2],1020 µg/mL
same,MIC90,[2],> 1020 µg/mL
same,MIC range,[2]; Other anaerobic gram-negative rods (51),0.06 to 1024 µg/mL
same,MIC range,Clostridium bifermentans,0.06 µg/mL
same,MIC50,Clostridium difficile; Clostridioides difficile,0.12 µg/mL
same,MIC90,Clostridium difficile; Clostridioides difficile,0.25 µg/mL
same,MIC range,Clostridium difficile,0.06 to 2 µg/mL
same,MIC range,[3],0.06 to 8 µg/mL
same,MIC range,Clostridium perfringens,0.06 µg/mL
same,MIC90,[4],32 µg/mL
same,MIC50,[4]; Anaerobic non-spore-forming gram-positive rods (63),1 µg/mL
same,MIC50,[5],0.12 µg/mL
same,MIC90,[5]; All anaerobic gram-positive species (219),64 µg/mL
same,MIC range,[6],16 to 128 µg/mL
